Data from PubChem BioAssay AID248 (DTP/NCI, 2004).
Values joined by “and” are separate entries in the source; they are usually repeats but may differ in a detail not shown here. Identical values can stand only once. Toxic doses and inconclusive results are not listed. No stated cut-off is given here; in the data, active means T/C of 150% or more; inactive means T/C below 125%.

Test system: L1210 leukemia ip in BDF1 mice, survival T/C
Assay: NCI In Vivo Anticancer Drug Screen. Data for tumor model L1210 Leukemia (intraperitoneal) in B6D2F1 (BDF1) mice
Settings: endpoint: mean survival time, higher = longer survival
In short: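 Survival endpoint. Drug-treated group vs vehicle group, expressed as T divided by C. Tumor passaged by transplantation.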

[1] = dose: 100.0 mg/kg/injection, schedule: Q04DX003 (ip), vehicle: Klucel (hydroxypropylcellulose) (HPC)
[2] = dose: 200.0 mg/kg/injection, schedule: Q04DX003 (ip), vehicle: Klucel (hydroxypropylcellulose) (HPC)
[3] = dose: 400.0 mg/kg/injection, schedule: Q04DX003 (ip), vehicle: Klucel (hydroxypropylcellulose) (HPC)
[4] = dose: 100.0 mg/kg/injection, schedule: Q01DX009 (ip), vehicle: Klucel (hydroxypropylcellulose) (HPC)
[5] = dose: 200.0 mg/kg/injection, schedule: Q01DX009 (ip), vehicle: Klucel (hydroxypropylcellulose) (HPC)
[6] = dose: 400.0 mg/kg/injection, schedule: Q01DX009 (ip), vehicle: Klucel (hydroxypropylcellulose) (HPC)

Measured: T/C

CC(C)=CCC1=C(O)c2ccccc2C(=O)C1=O
inactive: dose: 0.5 mg/kg/injection, schedule: Q01DX Z (ip), vehicle: water 91 % of control | dose: 2.0 mg/kg/injection, schedule: Q01DX Z (ip), vehicle: water 94 % of control | dose: 8.0 mg/kg/injection, schedule: Q01DX Z (ip), vehicle: water 91 % of control | dose: 11.0 mg/kg/injection, schedule: Q01DX009 (ip), vehicle: carboxymethylcellulose (CMC) 107 % of control | dose: 11.0 mg/kg/injection, schedule: Q01DX009 (ip), vehicle: other 95 % of control and 102 % of control | dose: 15.0 mg/kg/injection, schedule: Q01DX Z (ip), vehicle: water 88 % of control | dose: 16.67 mg/kg/injection, schedule: Q#B X027 (ip), vehicle: water 111 % of control | dose: 16.67 mg/kg/injection, schedule: Q#B X027 (sc), vehicle: water 97 % of control | dose: 17.0 mg/kg/injection, schedule: Q01DX009 (ip), vehicle: carboxymethylcellulose (CMC) 98 % of control | dose: 17.0 mg/kg/injection, schedule: Q01DX009 (ip), vehicle: other 94 % of control and 103 % of control | dose: 20.0 mg/kg/injection, schedule: Q01DX Z (ip), vehicle: water 96 % of control | dose: 25.0 mg/kg/injection, schedule: Q01DX009 (ip), vehicle: carboxymethylcellulose (CMC) 103 % of control | dose: 25.0 mg/kg/injection, schedule: Q01DX009 (ip), vehicle: other 95 % of control and 97 % of control | dose: 25.0 mg/kg/injection, schedule: Q#A X Z (ip), vehicle: water 90 % of control | dose: 30.0 mg/kg/injection, schedule: Q01DX Z (ip), vehicle: water 88 % of control | dose: 33.33 mg/kg/injection, schedule: Q#B X027 (oral), vehicle: water 100 % of control | dose: 33.33 mg/kg/injection, schedule: Q#B X027 (sc), vehicle: water 100 % of control | dose: 37.5 mg/kg/injection, schedule: Q01DX009 (ip), vehicle: carboxymethylcellulose (CMC) 98 % of control | dose: 37.5 mg/kg/injection, schedule: Q01DX009 (ip), vehicle: other 100 % of control and 102 % of control | dose: 40.0 mg/kg/injection, schedule: Q01DX Z (ip), vehicle: water 96 % of control | dose: 50.0 mg/kg/injection, schedule: Q01DX015 (ip), vehicle: water 95 % of control | dose: 50.0 mg/kg/injection, schedule: Q#A X Z (ip), vehicle: water 97 % of control | dose: 56.0 mg/kg/injection, schedule: Q01DX009 (ip), vehicle: carboxymethylcellulose (CMC) 102 % of control | dose: 60.0 mg/kg/injection, schedule: Q01DX Z (ip), vehicle: water 94 % of control | dose: 66.67 mg/kg/injection, schedule: Q#B X027 (ip), vehicle: water 120 % of control | dose: 66.67 mg/kg/injection, schedule: Q#B X027 (oral), vehicle: water 97 % of control | dose: 66.67 mg/kg/injection, schedule: Q#B X027 (sc), vehicle: water 100 % of control | dose: 84.0 mg/kg/injection, schedule: Q01DX009 (ip), vehicle: other 102 % of control and 104 % of control | dose: 90.0 mg/kg/injection, schedule: Q01DX Z (ip), vehicle: water 92 % of control | dose: 100.0 mg/kg/injection, schedule: Q01DX Z (oral), vehicle: water 91 % of control | dose: 100.0 mg/kg/injection, schedule: Q#A X Z (ip), vehicle: water 95 % of control | dose: 125.0 mg/kg/injection, schedule: Q#A X018 (oral), vehicle: other 102 % of control | dose: 126.0 mg/kg/injection, schedule: Q01DX009 (ip), vehicle: other 101 % of control and 104 % of control | dose: 133.33 mg/kg/injection, schedule: Q#B X027 (oral), vehicle: water 102 % of control | dose: 135.0 mg/kg/injection, schedule: Q01DX Z (ip), vehicle: water 94 % of control | dose: 189.0 mg/kg/injection, schedule: Q01DX009 (ip), vehicle: other 109 % of control and 122 % of control | dose: 200.0 mg/kg/injection, schedule: Q01DX001 (oral), vehicle: other 114 % of control | dose: 200.0 mg/kg/injection, schedule: Q01DX Z (ip), vehicle: water 102 % of control | dose: 200.0 mg/kg/injection, schedule: Q01DX Z (oral), vehicle: water 96 % of control | dose: 250.0 mg/kg/injection, schedule: Q#A X018 (oral), vehicle: other 97 % of control | dose: 300.0 mg/kg/injection, schedule: Q01DX Z (oral), vehicle: water 98 % of control | dose: 400.0 mg/kg/injection, schedule: Q01DX001 (oral), vehicle: other 100 % of control | dose: 600.0 mg/kg/injection, schedule: Q01DX001 (oral), vehicle: other 98 % of control | dose: 900.0 mg/kg/injection, schedule: Q01DX001 (oral), vehicle: other 96 % of control

CCc1nnnn1C12CC3CC(CC(C3)C1)C2
inactive: dose: 100.0 mg/kg/injection, schedule: Q04DX003 (ip), vehicle: saline 102 % of control

O=C(CCCC(=O)N/N=C/c1ccc(Cl)c([N+](=O)[O-])c1)N/N=C\c1ccc(Cl)c([N+](=O)[O-])c1
inactive: dose: 50.0 mg/kg/injection, schedule: Q01DX001 (ip), vehicle: saline 96 % of control | dose: 100.0 mg/kg/injection, schedule: Q01DX001 (ip), vehicle: saline 102 % of control | dose: 200.0 mg/kg/injection, schedule: Q01DX001 (ip), vehicle: saline 96 % of control | dose: 400.0 mg/kg/injection, schedule: Q01DX001 (ip), vehicle: saline 98 % of control

CC(C)N(c1ccc(C(=NO)c2ccc(N(C(C)C)C(C)C)cc2)cc1)C(C)C
inactive: [1] 90 % of control | [2] 88 % of control | [3] 92 % of control

ClC(=C(c1ccccc1)c1ccccc1)c1ccccc1
inactive: [4] 92 % of control | [1] 94 % of control | [5] 96 % of control | [2] 92 % of control | [6] 95 % of control | [3] 95 % of control

CC(=O)OCCOc1ccc(C(C)(C)C)cc1
inactive: dose: 50.0 mg/kg/injection, schedule: Q01DX009 (ip), vehicle: Klucel (hydroxypropylcellulose) (HPC) 100 % of control | [4] 86 % of control and 92 % of control | dose: 100.0 mg/kg/injection, schedule: Q04DX002 (ip), vehicle: Klucel (hydroxypropylcellulose) (HPC) 98 % of control | [5] 111 % of control | dose: 200.0 mg/kg/injection, schedule: Q04DX002 (ip), vehicle: Klucel (hydroxypropylcellulose) (HPC) 102 % of control | dose: 225.0 mg/kg/injection, schedule: Q01DX Z (ip), vehicle: carboxymethylcellulose (CMC) 95 % of control | dose: 400.0 mg/kg/injection, schedule: Q04DX002 (ip), vehicle: Klucel (hydroxypropylcellulose) (HPC) 115 % of control | dose: 450.0 mg/kg/injection, schedule: Q01DX Z (ip), vehicle: carboxymethylcellulose (CMC) 102 % of control

CCN(CC)CCn1c(CC23CC4CC(CC(C4)C2)C3)nc2cc([N+](=O)[O-])ccc21
inactive: dose: 100.0 mg/kg/injection, schedule: Q01DX001 (ip), vehicle: Klucel (hydroxypropylcellulose) (HPC) 90 % of control | dose: 200.0 mg/kg/injection, schedule: Q01DX001 (ip), vehicle: Klucel (hydroxypropylcellulose) (HPC) 98 % of control

Cc1ccccc1NC(=O)Oc1ccc2c(C)cc(=O)oc2c1
inactive: [4] 103 % of control | [5] 100 % of control

S=C(NC1CC2C=CC1C2)N1CCCCC1 (stereo unspecified)
inactive: dose: 50.0 mg/kg/injection, schedule: Q01DX009 (ip), vehicle: saline with Tween-80 106 % of control | dose: 100.0 mg/kg/injection, schedule: Q01DX009 (ip), vehicle: saline with Tween-80 100 % of control | dose: 200.0 mg/kg/injection, schedule: Q01DX009 (ip), vehicle: saline with Tween-80 95 % of control

COC(=O)c1c2cccccc-2c(C(=O)OC)c1N
inactive: dose: 100.0 mg/kg/injection, schedule: Q04DX002 (ip), vehicle: saline with Tween-80 97 % of control | dose: 200.0 mg/kg/injection, schedule: Q04DX002 (ip), vehicle: saline with Tween-80 91 % of control | dose: 400.0 mg/kg/injection, schedule: Q04DX002 (ip), vehicle: saline with Tween-80 94 % of control

O=S(=O)(O)c1ccc(/C2=c3\cc/c([n-]3)=C(\c3ccc(S(=O)(=O)O)cc3)c3ccc([n-]3)/C(c3ccc(S(=O)(=O)O)cc3)=c3/cc/c([n-]3)=C(\c3ccc(S(=O)(=O)O)cc3)c3ccc2[n-]3)cc1.[Co]
inactive: dose: 50.0 mg/kg/injection, schedule: Q01DX009 (ip), vehicle: saline 97 % of control | dose: 100.0 mg/kg/injection, schedule: Q01DX009 (ip), vehicle: saline 113 % of control

COc1ccc(COC(=O)Nc2ccc(Br)cc2)cc1
inactive: [4] 101 % of control | [5] 98 % of control | [6] 103 % of control
